Where “and” joins values, the source holds several entries; their conditions need not be identical. Identical values can stand only once. Each block holds one compound with its values, some of them ahead of it. Where a SMILES comes first, the peptide text is derived from it. [ ]: non-standard residue; d: D form. The star is where a group is joined. Isobutyryl(2-OH) = CC(C)(O)C(=O)*; Deg = CCC(N)(CC)C(=O)O
What was measured:
[1] = Pharmacokinetics in rats after single subcutaneous dose, LCMS (Example 10)
serum calcium [2] = assay: Serum calcium in mice after single subcutaneous SEQ ID NO: 77 (Example 9); type: in vivo, C57BL/6J mice; details: for Percent change of serum Ca levels: 24 hr vs 0 hr
Experimental: Absorbance (Ab) was measured at 650 nm wavelength. Manufacturer linearity is provided up to 15 mg/dl. […] This difference was statistically significant at 24 hours when accounting for the initial baseline levels (FIG. 14B). There was an increase in serum Ca at 24 hours following the dose of 40 nmol/kg.

PTHR1 = target: T1, PTHR1 (Homo sapiens, UniProt Q03431); assay: cAMP Hunter Teriparatide Bioassay (CHO-K1 PTHR1 cells); type: cell-based
T1 construct: host or cells: CHO-K1
T1 sequence (Q03431 27-593): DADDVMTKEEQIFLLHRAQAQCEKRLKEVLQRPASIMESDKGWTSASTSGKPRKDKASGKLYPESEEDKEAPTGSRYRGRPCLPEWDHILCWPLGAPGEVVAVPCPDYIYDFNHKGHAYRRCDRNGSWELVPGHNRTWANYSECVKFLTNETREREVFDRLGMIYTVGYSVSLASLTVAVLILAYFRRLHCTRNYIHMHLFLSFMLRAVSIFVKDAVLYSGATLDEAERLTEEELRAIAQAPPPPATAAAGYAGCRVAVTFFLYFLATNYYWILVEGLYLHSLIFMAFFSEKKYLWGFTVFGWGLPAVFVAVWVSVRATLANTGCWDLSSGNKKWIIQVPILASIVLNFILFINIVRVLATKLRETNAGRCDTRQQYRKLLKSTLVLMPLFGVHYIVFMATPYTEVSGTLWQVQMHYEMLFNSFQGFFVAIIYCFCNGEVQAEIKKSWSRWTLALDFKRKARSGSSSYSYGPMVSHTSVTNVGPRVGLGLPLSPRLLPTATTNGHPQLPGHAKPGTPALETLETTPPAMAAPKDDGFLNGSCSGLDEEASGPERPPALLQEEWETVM

serum calcium [3] = assay: Serum calcium in rats, repeat daily dosing 7 days (Example 13); type: in vivo, Sprague-Dawley rats; details: daily SC 7 days; SEQ ID NO: 77 20 nmol/kg, SEQ ID NO: 87 20 or 40 nmol/kg; returned to initial values after washout
Experimental: (§1) Female Sprague-Dawley rats were single or double-housed and randomly assigned to four groups (n=5-6 per group) as described in Table 20, and then weighed.
(§2) After the treatment ceased, the animals were monitored on days 9 and 11 (washout period).
(§3) Body weight and food intake were measured on days 0, 1, 3, 5 and 7. Ca was measured on days 0, 1, 2, 3, 4, 7, 9 and 11. Pi was determined on the same samples, except for days 9 and 11.

[4] = Pharmacokinetics of SEQ ID 87 in monkeys, single subcutaneous dose (Example 17); type: in vivo, cynomolgus monkeys
serum phosphate = assay: Serum phosphate in rats, repeat daily dosing 7 days (Example 13); type: in vivo, Sprague-Dawley rats; details: daily SC, SEQ ID NO: 77 20 nmol/kg
Experimental: as §1, §2, §3

serum calcium [5] = assay: Pharmacology in normal mice: serum calcium (Example 6); type: in vivo, C57Bl6/J mice; details: FIG. 5C, 20 or 40 nmol/kg SC, 24 and 48 hours
Experimental: Each group of mice was bled immediately before the injection and after 24 and 48 hours. Blood was centrifuges and serum was collected and stored at −20 C. Calcium concentrations were determined used commercially available assays following the manufacturer's instructions.

[6] = Plasma drug levels in rats, repeat daily dosing 7 days, LCMS (Example 13); type: in vivo, Sprague-Dawley rats; details: daily SC dosing
Experimental: as §1, §2, §3

PTH1 receptor = target: T2, PTH1 receptor (Homo sapiens, UniProt Q03431); assay: Luciferase-based reporter gene assay for cAMP detection (HEK293 cells); type: cell-based; details: FIG. 4; luciferase reporter of cAMP production
T2 construct: expressed in transfected cells; host or cells: HEK293
T2 sequence (Q03431 27-593): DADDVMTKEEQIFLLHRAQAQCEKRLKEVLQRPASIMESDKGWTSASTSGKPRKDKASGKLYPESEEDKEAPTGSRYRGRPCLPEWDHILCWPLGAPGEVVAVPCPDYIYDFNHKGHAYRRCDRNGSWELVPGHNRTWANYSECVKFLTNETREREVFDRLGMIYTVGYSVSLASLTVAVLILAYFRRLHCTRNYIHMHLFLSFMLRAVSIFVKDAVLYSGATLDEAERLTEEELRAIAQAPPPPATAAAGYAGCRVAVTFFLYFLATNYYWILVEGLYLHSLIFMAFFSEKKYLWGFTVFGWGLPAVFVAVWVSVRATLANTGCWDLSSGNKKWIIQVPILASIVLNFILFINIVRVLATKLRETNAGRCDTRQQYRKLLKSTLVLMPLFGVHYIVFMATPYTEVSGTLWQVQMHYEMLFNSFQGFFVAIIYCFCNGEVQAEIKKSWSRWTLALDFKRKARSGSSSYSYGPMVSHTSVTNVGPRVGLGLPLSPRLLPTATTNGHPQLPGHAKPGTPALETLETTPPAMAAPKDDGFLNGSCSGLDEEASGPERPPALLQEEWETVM
Experimental: At the end of the incubation, 50 μL of Steady-Lite Plus (PerkinElmer, Waltham, MA) were added to each well. The plate was shaken briefly, incubated four minutes and light output was measured on an EnSpire Alpha Multi-mode Plate Reader (PerkinElmer, Waltham, MA).

[7] = Rate of model dipeptide cleavage from hexapeptide in PBS (HPLC, LC-MS); type: physicochemical; details: buffer
Experimental: The solution was incubated at 37° C.
The flow rate was 1 ml/min.

[8] = rats, SEQ ID NO: 77 30 nmol/kg SC
[9] = rats, after SEQ ID NO: 87 30 nmol/kg SC

- level at time molar at 2 h ([1]; female, Sprague-Dawley, rat, serum, sc, 30 nmol/kg): > 100 nM
- time at baseline level [1, 8]: 96 h
- time of peak concentration [1, 8]: seven
- concentration as fraction of the Cmax ([1]; rats, SEQ ID NO: 77 30 nmol/kg SC, at 48 h): ⅓
- time of peak of drug formed from prodrug [1, 9]: 24 h
- time of return to baseline, drug formed from prodrug [1, 9]: one week
- EC50 (PTHR1; FIG. 11, active drug): 0.01 nM
- Hillslope (PTHR1; FIG. 11, active drug): 1.874
- EC50 (PTHR1; FIG. 12): 0.0366 nM
- Hillslope (PTHR1; FIG. 12): 2.237
- EC50 (PTHR1; FIG. 13A): 0.0107 nM
- Hillslope (PTHR1; FIG. 13A): 2.687
- EC50 (PTHR1; FIG. 13B): 0.0193 nM
- Hillslope (PTHR1; FIG. 13B): 2.687
- PTH agonism (PTHR1; conclusions from Table 14, FIGS. 8A-8C): inactivates the PTH agonism
- time of peak concentration of drug formed from prodrug ([4]; after SEQ ID No 87 2.5, 3.75, 5 nmol/kg SC): 48 to 72 h
- concentration as fraction of the Cmax concentration ([4]; drug formed from prodrug, at one week): approximately ⅔
- daily administrations to reach steady state plasma levels [6]: four
- potency at the PTH receptor (PTH1 receptor): retains the high potency
SMILES: CC[C@H](C)[C@H](NC(=O)[C@H](CCC(=O)O)NC(=O)[C@H](CO)NC(=O)[C@@H](NC(=O)[C@@H](N)CO)C(C)C)C(=O)N[C@@H](CCC(N)=O)C(=O)N[C@@H](CC(C)C)C(=O)N[C@@H](CCSC)C(=O)N[C@@H](Cc1c[nH]cn1)C(=O)N[C@@H](CC(N)=O)C(=O)N[C@@H](CC(C)C)C(=O)NCC(=O)N[C@@H](CCCCN)C(=O)N[C@@H](Cc1c[nH]cn1)C(=O)N[C@@H](CC(C)C)C(=O)N[C@@H](CC(N)=O)C(=O)N[C@@H](CO)C(=O)N[C@@H](CCSC)C(=O)N[C@@H](CCC(=O)O)C(=O)N[C@@H](CCCNC(=N)N)C(=O)N[C@H](C(=O)N[C@@H](CCC(=O)O)C(=O)N[C@@H](Cc1c[nH]c2ccccc12)C(=O)N[C@@H](CC(C)C)C(=O)N[C@@H](CCCNC(=N)N)C(=O)N[C@@H](CCCCN)C(=O)N[C@@H](CCCCN)C(=O)N[C@@H](CC(C)C)C(=O)N[C@@H](CCC(N)=O)C(=O)N[C@@H](CC(=O)O)C(=O)N[C@H](C(=O)N[C@@H](Cc1c[nH]cn1)C(=O)N[C@@H](CCCCNC(=O)CC[C@H](NC(=O)COCCOCCNC(=O)COCCOCCNC(=O)CC[C@H](NC(=O)CCCCCCCCCCCCCCCCC(=O)O)C(=O)O)C(=O)O)C(=O)O)C(C)C)C(C)C [SEQ ID NO: 77]
- Percent change of serum Ca levels (serum calcium [2]; 20 nmol/kg SC): 13.8%
- Serum Ca change (serum calcium [2]; 20 nmol/kg SC, 24 hr vs 0 hr (nmol/ul)): 0.3131
- Serum Ca change (serum calcium [2]; 20 nmol/kg SC, 48 hr vs 0 hr): 0.0709
- serum Ca levels compared to controls or 20 nmol/kg (serum calcium [2]; 40 nmol/kg SC, 24 and 48 hours post treatment): significantly increased serum Ca levels
- Percent change of serum Ca levels (serum calcium [2]; 40 nmol/kg SC): 26.2%
- Serum Ca change (serum calcium [2]; 40 nmol/kg SC, 24 hr vs 0 hr (nmol/uL)): 0.631
- Serum Ca change (serum calcium [2]; 40 nmol/kg SC, 48 hr vs 0 hr): 0.073
- Serum Calcium Conc., individual mouse (serum calcium [2]; Group F (20 nmol/kg by match with Table 11), 0 hour): 8.9502 mg/dl and 2.2375 nmol/uL and 8.8662 mg/dl and 2.2165 nmol/uL and 9.3810 mg/dl and 2.3453 nmol/uL and 9.3774 mg/dl and 2.3443 nmol/uL and 10.2136 mg/dl and 2.5534 nmol/uL and 9.6513 mg/dl and 2.4128 nmol/uL and 8.7165 mg/dl and 2.1791 nmol/uL and 7.4968 mg/dl and 1.8742 nmol/uL
- Serum Calcium Conc., individual mouse (serum calcium [2]; Group F (20 nmol/kg by match with Table 11), 24 hours): 9.1693 mg/dl and 2.2923 nmol/uL and 9.4988 mg/dl and 2.3747 nmol/uL and 9.8423 mg/dl and 2.4606 nmol/uL and 11.4721 mg/dl and 2.8680 nmol/uL and 10.9604 mg/dl and 2.7401 nmol/uL and 10.4767 mg/dl and 2.6192 nmol/uL and 9.1062 mg/dl and 2.2766 nmol/uL and 12.1451 mg/dl and 3.0363 nmol/uL
- Serum Calcium Conc., individual mouse (serum calcium [2]; Group F (20 nmol/kg by match with Table 11), 48 hours): 8.8303 mg/dl and 2.2076 nmol/uL and 9.1467 mg/dl and 2.2867 nmol/uL and 8.8431 mg/dl and 2.2108 nmol/uL and 7.3666 mg/dl and 1.8416 nmol/uL and 8.7057 mg/dl and 2.1764 nmol/uL and 9.7411 mg/dl and 2.4353 nmol/uL and 8.7472 mg/dl and 2.1868 nmol/uL and 9.0029 mg/dl and 2.2507 nmol/uL
- Serum Calcium Conc., individual mouse (serum calcium [2]; Group G (40 nmol/kg by match with Table 11), 0 hour): 9.4650 mg/dl and 2.3663 nmol/uL and 10.0310 mg/dl and 2.5078 nmol/uL and 9.9105 mg/dl and 2.4776 nmol/uL and 8.8662 mg/dl and 2.2165 nmol/uL and 10.1369 mg/dl and 2.5342 nmol/uL and 10.6007 mg/dl and 2.6502 nmol/uL and 9.6001 mg/dl and 2.4000 nmol/uL and 8.5266 mg/dl and 2.1316 nmol/uL
- Serum Calcium Conc., individual mouse (serum calcium [2]; Group G (40 nmol/kg by match with Table 11), 24 hours): 13.6768 mg/dl and 3.4192 nmol/uL and 11.5422 mg/dl and 2.8856 nmol/uL and 12.7305 mg/dl and 3.1826 nmol/uL and 11.5563 mg/dl and 2.8891 nmol/uL and 13.0880 mg/dl and 3.2720 nmol/uL and 11.5633 mg/dl and 2.8908 nmol/uL and 11.7070 mg/dl and 2.9267 nmol/uL and 11.4651 mg/dl and 2.8663 nmol/uL
- Serum Calcium Conc., individual mouse (serum calcium [2]; Group G (40 nmol/kg by match with Table 11), 48 hours): 10.2589 mg/dl and 2.5647 nmol/uL and 9.0764 mg/dl and 2.2691 nmol/uL and 10.0607 mg/dl and 2.5152 nmol/uL and 9.2554 mg/dl and 2.3138 nmol/uL and 9.9968 mg/dl and 2.4992 nmol/uL and 9.9425 mg/dl and 2.4856 nmol/uL and 10.6168 mg/dl and 2.6542 nmol/uL and 10.2429 mg/dl and 2.5607 nmol/uL
- serum Ca at 48 hours post treatment (serum calcium [2]; all treatments, 20 or 40 nmol/kg SC): returned to near starting levels
- Serum Ca levels during the treatment period (serum calcium [3]): gradually increased
- serum Pi on day 3 versus vehicle and SEQ ID NO: 87 40 nmol/kg (serum phosphate): differed significantly
- effect on serum calcium levels (serum calcium [5]): increase serum calcium levels

- half-life at 1 mg/ml [7]: 46 h
SMILES: CCC(N)(CC)C(=O)N1CCC[C@H]1C(=O)N[C@@H](Cc1c[nH]cn1)C(=O)N[C@@H](CO)C(=O)N[C@@H](CCCNC(=N)N)C(=O)NCC(=O)N[C@H](C(=O)N[C@@H](Cc1ccccc1)C(N)=O)[C@@H](C)O [compound 20] (H-[Deg]PHSRGTF-NH2)

- half-life at 1 mg/ml [7]: 61 h
SMILES: C[C@@H](O)[C@H](NC(=O)CNC(=O)[C@H](CCCNC(=N)N)NC(=O)[C@H](CO)NC(=O)[C@H](Cc1c[nH]cn1)NC(=O)[C@@H]1CCCN1C(=O)C(C)(C)O)C(=O)N[C@@H](Cc1ccccc1)C(N)=O [compound 21] ({Isobutyryl(2-OH)}-PHSRGTF-NH2)
